Assay results reported in patent US20260200903A1, “PHARMACEUTICAL COMPOSITION FOR AMELIORATING MALIGNANT DISEASES” (KINKI UNIVERSITY, priority 2020, published 2026).

Assays:
Assay type in all cases: cell-based
[1] = test system: RPMI8226/B cells (bortezomib-resistant myeloma cell line); experiment: Cell death inducing effect on RPMI8226/B cells, trypan blue staining; details: RPMI8226/B (myeloma; bortezomib resistance), cell viability
Protocol: (§1) RPMI8226/B cells (bortezomib-resistant myeloma cell line) were cultured under 5% CO2 at 37° C. The culture medium used RPMI-1640 medium with 100 μg/mL penicillin, 100 U/mL streptomycin and fetal bovine serum. RPMI8226/B cells were seeded into 96-well plates and incubated with each concentration of the compounds was added, and cell viability was determined by the trypan blue staining.
(§2) For controls, only 0.5% DMSO (diluted in PBS) used to dissolve the compounds was added. For each concentration, each bar line is indicated by an arrow with the sign “n, a, 1, 2, 3, 4, 5, 6, 7, 8, 9, 10, 11, 12” from left to right. The “1, 3, 5, 7, 9, 11” are omitted from the graph, but the sign “1” shall be indicated by an arrow between the signs “a” and “2”, the sign “3” between the signs “2” and “4”, and other odd numbers shall likewise be indicated by arrows between even numbers before and after.
(§3) The sign “n” is the norathyriol (formula (n)) administration group, the sign “a” is the mangiferin 8a (formula (a)) administration group, the sign “1” is the yk-7 (formula (1)) administration group, the sign “2” is the yk-8-1 (formula (2)) administration group, the sign “3” is the yk-8-3 (formula (3)) administration group, the sign “4” is the M7 (formula (4)) administration group, the sign “5” is the M9 (formula (5)) administration group, the sign “6” is the M11 (formula (6)) administration group, the sign “7” is the M12 (formula (7)) administration group, the sign “8” is the M14 (formula (8)) administration group, the sign “9” is the M15 (formula (9)) administration group, the sign “10” is the M16 (formula (10)) administration group, the sign “11” is the M18 (formula (11)) administration group, the sign “12” is the M19 (formula (12)) administration group, respectively. The IC50 values for each compound is also listed in the upper right corner of the figure.

[2] = test system: CCRF-SB cells (acute lymphocytic leukemia cell line); experiment: Cell death inducing effect on CCRF-SB cells, trypan blue staining; details: CCRF-SB (acute lymphoblastic leukemia), cell viability
Protocol: as §1, with “CCRF-SB” for “RPMI8226/B”, “(acute lymphocytic leukemia” for “(bortezomib-resistant myeloma”
as §2, §3

[3] = target: T1, phospho-NIK (Homo sapiens, UniProt Q99558); experiment: Immunoblotting of phospho-NIK in KMS-28BM cells; details: 72 h, vs control, 1 μM mangiferin 8a/M8, 1 μM norathyriol, 0.5 μM M7, 0.2 μM M9, 5 μM yk-7, 0.5 μM yk-8-3, 100 μM yk-8-1, 0.5 μM M19, M18, M11, 0.005 μM M16, M15, M14, 0.05 μM M12
T1 construct: Proteins were extracted from these cell suspensions with cell lysate and used as samples; endogenous in cells; host or cells: KMS-28BM (myeloma)
T1 sequence (Q99558 whole entry): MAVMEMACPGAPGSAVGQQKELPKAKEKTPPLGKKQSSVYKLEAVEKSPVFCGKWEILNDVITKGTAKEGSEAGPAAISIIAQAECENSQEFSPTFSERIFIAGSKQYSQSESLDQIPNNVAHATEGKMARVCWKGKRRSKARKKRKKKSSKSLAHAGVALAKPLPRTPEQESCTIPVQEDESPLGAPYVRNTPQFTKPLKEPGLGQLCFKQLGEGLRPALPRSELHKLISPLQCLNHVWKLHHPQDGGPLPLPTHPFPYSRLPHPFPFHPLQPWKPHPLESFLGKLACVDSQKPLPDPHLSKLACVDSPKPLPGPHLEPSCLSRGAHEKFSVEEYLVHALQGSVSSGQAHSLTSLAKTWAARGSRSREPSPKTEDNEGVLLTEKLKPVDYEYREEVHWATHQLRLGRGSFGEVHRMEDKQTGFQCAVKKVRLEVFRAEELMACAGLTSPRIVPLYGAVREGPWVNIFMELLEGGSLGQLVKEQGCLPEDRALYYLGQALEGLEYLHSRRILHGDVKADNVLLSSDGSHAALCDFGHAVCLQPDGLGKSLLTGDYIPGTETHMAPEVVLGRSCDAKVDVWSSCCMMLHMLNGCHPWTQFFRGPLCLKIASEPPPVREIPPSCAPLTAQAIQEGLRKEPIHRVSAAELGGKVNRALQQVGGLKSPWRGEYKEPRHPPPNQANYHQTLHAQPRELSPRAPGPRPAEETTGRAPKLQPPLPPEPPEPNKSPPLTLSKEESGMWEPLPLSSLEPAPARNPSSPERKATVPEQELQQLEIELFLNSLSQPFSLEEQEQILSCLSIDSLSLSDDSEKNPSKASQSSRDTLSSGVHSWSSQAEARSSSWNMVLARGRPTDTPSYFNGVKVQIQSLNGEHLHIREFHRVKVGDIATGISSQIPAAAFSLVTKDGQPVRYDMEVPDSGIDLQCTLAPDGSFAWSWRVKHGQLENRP
Protocol: Immunoblotting was performed on KMS-28BM cells to investigate the inhibitory effect of each compound administration on NIK inhibition and the activation of IKK, NF-κB p52, and NF-κB p65, which are downstream signals of NIK. As a result, inhibition of NIK activation, inhibition of IKK activity, and inhibition of nuclear translocation of NF-κB p52 and NF-κB p65 were observed (FIG. 15 and FIG. 16).
As a control, compounds untreated KMS-28BM cells were seeded in 150 cm^2 flasks and incubated for 72 h at 37° C. and 5% CO2. KMS-28BM cells were seeded into 150 cm^2 flasks and pre-cultured for 24 h. After incubation, KMS-28BM cells were treated with […], 1 μM norathyriol, 0.5 μM M7 (formula (4)), 1 μM M8 (mangiferin 8a: listed in duplicate), 0.2 μM M9 (formula (5)), 5 μM yk-7 (formula (1)), 0.5 μM yk-8-3 (formula (3)) and 100 μM yk-8-1 (formula (2)) at final concentrations, and incubated for 72 h at 37° C. and 5% CO2. In addition, KMS-28BM cells were also treated with 0.5 μM M19 (formula (12)), 0.5 μM M18 (formula (11)), 0.005 μM M16 (formula (10)), […] (formula (9)), 0.005 μM M14 (formula (8)), 0.05 μM M12 (formula (7)) and […] (formula (6)) at the final concentrations, and incubated for 72 h at 37° C. and 5% CO2. Proteins were extracted from these cell suspensions with cell lysate and used as samples.
The nucleus and cytoplasmic substrate were separated from the cells using the ProteoExtract (registered trademark) Subcellular Proteome Extraction Kit from Merck Ltd. to extract the cytoplasmic and nuclear fractions.
After SDS-PAGE, each sample was transferred to a PVDF membrane and examined using anti-phospho-NIK, anti-NIK, anti-phospho-IKK, anti-IKK, anti-P-actin, anti-NF-κB p52 and anti-NF-κB p65 antibody, and anti-Lamin antibody.
The antibody species is indicated in the vertical direction. Specifically, for anti-phospho-NIK antibody, “Phospho-NIK” was used, for anti-NIK antibody, “NIK” was used, for anti-phospho-IKK antibody, “Phospho-IKK” was used, for anti-IKK antibody, “IKK” was used, for anti-p-actin antibody, “p-actin” was used, for anti-NF-κB p52 antibody, “NF-κB p52 nuclear” was used, for anti-NF-κB p65 antibody, “NF-κB p65 nuclear” was used, and for anti-Lamin antibody, “Lamin” was used.

[4] = test system: CD138; experiment: CD138 expression in KMS-28BM cells, flow cytometry; details: 10 days, concentration lower than the IC50 (0.005-50 μM), compared to the positive control
Protocol: As a control, compounds untreated KMS-28BM cells were seeded in 75 cm^2 flasks and incubated for 10 days at 37° C. and 5% CO2. KMS-28BM cells were seeded into 75 cm^2 flasks and pre-cultured for 4 h. After incubation, KMS-28BM cells were treated with […], 0.05 μM M9, 0.1 μM yk-7, 0.1 μM yk-8-3, 50 μM yk-8-1, 0.5 μM M11, […], 0.005 μM M14, 0.005 μM M15, 0.005 μM M16, 0.5 μM M18, and 0.5 μM M19 at final concentrations, and incubated for 10 days at 37° C. and 5% CO2. This added amount is a concentration lower than the IC50 of the above compounds for KMS-28BM cells. After 10 days of incubation, cells were stained with anti-CD138 antibody, a marker of multiple myeloma grade, and CD138 expression was measured using BD LSRFortessa.
Results are shown in FIG. 17, FIG. 18, FIG. 19 and FIG. 20. The horizontal axis represents the expression level of CD138 and the vertical axis represents the number of cells.

Compound | phospho-NIK band density (anti-phospho-NIK antibody) [3] | IC50 [1] | IC50 [2] | CD138 expression levels [4] | IC50 ([1]; Homo sapiens, RPMI-8226) | IC50 ([2]; Homo sapiens)
CCCCC(=O)OC[C@H]1O[C@@H](c2c(O)cc3oc4cc(O)c(O)cc4c(=O)c3c2OC(=O)CCCC)[C@H](OC(=O)CCCC)[C@@H](OC(=O)CCCC)[C@@H]1OC(=O)CCCC [yk-8-3, 1,2′,3′,4′,6-penta-O-valerylmangiferin] | decrease in band density | – | – | markedly reduced | 231 nM | 2410 nM
O=c1c2cc(O)c(O)cc2oc2cc(O)cc(O)c12 [norathyriol, reference compound] | decrease in band density | – | – | – | 632 nM | 12300 nM
1,2′,3′,4′,6-penta-O-propionylmangiferin [Compound 8a, reference compound] | decrease in band density | 892 nM | 7420 nM | – | – | –
CCCCC(=O)OC[C@H]1O[C@@H](c2c(O)cc3oc4cc(O)c(O)cc4c(=O)c3c2O)[C@H](OC(=O)CCCC)[C@@H](OC(=O)CCCC)[C@@H]1OC(=O)CCCC [yk-7, 2′,3′,4′,6′-tetra-O-valerylmangiferin] | decrease in band density | – | – | markedly reduced | 79 nM | 1840 nM
CCCCC(=O)OC[C@H]1O[C@@H](c2c(OC(=O)CCCC)cc3oc4cc(OC(=O)CCCC)c(OC(=O)CCCC)cc4c(=O)c3c2OC(=O)CCCC)[C@H](OC(=O)CCCC)[C@@H](OC(=O)CCCC)[C@@H]1OC(=O)CCCC [yk-8-1, 1,3,2′,3′,4′,6,6′,7-octa-O-valerylmangiferin] | decrease in band density | 6430 nM | > 100000 nM | markedly reduced | – | –

More lines, main results first:

phospho-NIK band density (anti-phospho-NIK antibody) [3] | Compound | IC50 [1] | IC50 [2] | CD138 expression levels [4] | IC50 ([1]; Homo sapiens, RPMI-8226) | IC50 ([2]; Homo sapiens)
decrease in band density | CCCC(=O)OC[C@H]1O[C@@H](c2c(OC(=O)CCC)cc3oc4cc(OC(=O)CCC)c(OC(=O)CCC)cc4c(=O)c3c2OC(=O)CCC)[C@H](OC(=O)CCC)[C@@H](OC(=O)CCC)[C@@H]1OC(=O)CCC [Compound M11, 1,3,2′,3′,4′,6,6′,7-octa-O-butyrylmangiferin] | 169 nM | 7820 nM | markedly reduced | – | –
decrease in band density | C=CCOc1cc(O)cc2oc3cc(O)c(O)cc3c(=O)c12 [Compound M19, 1-allyloxy-3,6,7-trihydroxy-9H-xanthen-9-one] | – | – | markedly reduced | 758 nM | 18200 nM
decrease in band density | O=c1c2cc(O)c(O)cc2oc2cc(O)cc(OCCO)c12 [Compound M18, 3,6,7-trihydroxy-1-(2-hydroxyethoxy)-9H-xanthen-9-one] | – | – | markedly reduced | 486 nM | 9180 nM
decrease in band density | CCC(=O)OC[C@H]1O[C@@H](c2c(OC(=O)CC)cc3oc4cc(OC(=O)CC)c(OC(=O)CC)cc4c(=O)c3c2OC(=O)CC)[C@H](OC(=O)CC)[C@@H](OC(=O)CC)[C@@H]1OC(=O)CC [Compound M7, 1,3,2′,3′,4′,6,6′,7-octa-O-propionylmangiferin] | – | – | markedly reduced | 251 nM | 6760 nM
decrease in band density | CCCCO[C@@H]1[C@@H](OCCCC)[C@H](c2c(O)cc3oc4cc(O)c(O)cc4c(=O)c3c2O)O[C@H](COC(=O)CCC)[C@H]1OC(=O)CCC [Compound M16, 2′,3′-di-O-butyl-4′,6′-di-O-butyrylmangiferin] | – | – | markedly reduced | 42 nM | 198 nM
decrease in band density | CCC(=O)OC[C@H]1O[C@@H](c2c(O)cc3oc4cc(O)c(O)cc4c(=O)c3c2O)[C@H](OC(=O)CC)[C@@H](OC(=O)CC)[C@@H]1OC(=O)CC [Compound M9, 2′,3′,4′,6′-tetra-O-propionylmangiferin] | – | – | markedly reduced | 69 nM | 1620 nM
decrease in band density | CCCC(=O)OC[C@H]1O[C@@H](c2c(O)cc3oc4cc(O)c(O)cc4c(=O)c3c2O)[C@H](OC(=O)CCC)[C@@H](OC(=O)CCC)[C@@H]1OC(=O)CCC [Compound M14, 2′,3′,4′,6′-tetra-O-butyrylmangiferin] | – | – | markedly reduced | 51 nM | 287 nM
decrease in band density | CC(C)(C)C(=O)OC[C@H]1O[C@@H](c2c(O)cc3oc4cc(O)c(O)cc4c(=O)c3c2O)[C@H](OC(=O)C(C)(C)C)[C@@H](OC(=O)C(C)(C)C)[C@@H]1OC(=O)C(C)(C)C [Compound M15, 2′,3′,4′,6′-tetra-O-pivaloylmangiferin] | – | – | markedly reduced | 71 nM | 357 nM
decrease in band density | CCCC(=O)OC[C@H]1O[C@@H](c2c(O)cc3oc4cc(O)c(O)cc4c(=O)c3c2OC(=O)CCC)[C@H](OC(=O)CCC)[C@@H](OC(=O)CCC)[C@@H]1OC(=O)CCC [Compound M12, 1,2′,3′,4′,6-penta-O-butyrylmangiferin] | – | – | markedly reduced | 91 nM | 954 nM
